Laboratory results published in article PMC4912613, “A broad analysis of resistance development in the malaria parasite” (Nature Communications, 2016).
pEC50: −log10 of the molar value. Read-outs that look alike come from different tables or passages of the source.

Experiments:
P. falciparum strain 3D7 = test: Asexual blood stage 3H-hypoxanthine incorporation assay, 3D7; type: cell-based, Plasmodium falciparum; conditions: Plasmodium falciparum, 3D7, asexual stage, P. falciparum 3D7; read-out: 3D7 EC50
Experimental: (§1) The 48-h assay was carried out in a 96-well format following standard methods using the ^3H-hypoxanthine incorporation assay. The raw EC50 values corresponding to this assay can be found in Supplementary Data 3. Briefly, this assay relies on the parasite incorporation of labelled hypoxanthine that is proportional to P. falciparum growth. A culture of parasitized RBCs (0.5% parasitemia with a percentage of ring stage higher than 70% of total parasitemia, 2.0% haematocrit) in RPMI-1640, […] and 5 μM hypoxanthine was exposed to drug serial dilutions. Plates were incubated for 24 h at 37 °C, 5% CO2, 5% O2 and 90% N2. After 24 h of incubation, ^3H-hypoxanthine was added and plates were incubated for an additional 24-h period. After that, parasites were harvested on a glass fibre filter using a TOMTEC Cell Harvester 96. Filters were dried and melt-on scintillator sheets were used to determine the incorporation of ^3H-hypoxanthine. Radioactivity was measured using a microbeta counter. Data were normalized using the incorporation of the positive (parasitized RBCs without drug) and negative (same culture with artesunate at 2 μM) controls. All assays were conducted in triplicate using three independently grown cultures, and EC50 values were determined using the XLfit add-in module for Excel (version 2.3.1) from Grafit (version 5.3.1.3), where parameter h is the assay hill slope, x is the compound concentration and y is the inhibition of growth effect. The XLfit equation is: […]

[1] = test system: CYTb-G131S (cytb G131S, parent Dd2); test: Cross-resistance EC50 assay, CYTb-G131S; type: cell-based, Plasmodium falciparum; conditions: for pEC50: Plasmodium falciparum, SYBR green 72 hour assay, synchronized parasites, 384-well format
Description: To evaluate potential overlapping activity against known antimalarial drug targets, we performed dose-response studies with each compound against our assembled set of drug-resistant lines and their corresponding parents, in an asexual blood stage proliferation assay (Table 1). Comparisons were made to the drug-sensitive strain 3D7 when a parent was unavailable (TM90C2A, W2 and Dd2). As laboratories conducted EC50 assays with different strains and protocols, all comparisons were made between assays from the same laboratory and under the same assay conditions. Compounds displaying >5-fold EC50 shifts relative to the parent or sensitive strain were flagged as having potentially non-novel targets. Average fold shifts per strain ranged from 0.82 to 2.34, with a median of 1.23 indicating there was not common resistance to any one resistant clone. No resistance patterns were observed when classifying the compounds based on chemical structure, but this was not surprising given the diversity of compounds chosen. On the other hand, given that these confirmed compounds were derived from larger unconfirmed hit lists to which some filtration criteria may have been applied (for example, elimination of obvious dihydrofolate reductase inhibitors[32]), some[10][11][12][13] pre-existing bias may exist in the set. […]
Alternatively, a SYBR Green-based proliferation approach was used for the 72-h assay, as previously described. Briefly, a culture of either synchronized or asynchronous parasitized RBCs (0.3% parasitemia and 4% haematocrit) in screening medium (identical to supplemented medium above except no serum was added) was exposed to serial drug dilutions. Plates were incubated at 37 °C and gassed with 93% N2, 4% CO2 and 3% O2 for 72 h. Following incubation, 10 × SYBR Green I (Invitrogen; supplied in 10,000 × concentration) in lysis buffer ([…], 5 mM EDTA, 0.16% Saponin wt per vol and 1.6% Triton X vol per vol) was added to the wells and the plates were incubated overnight at room temperature before plate reading. EC50 assays were repeated three times, taking the average EC50 value from each assay set, and removing any outliers using a single iteration of Grubbs' test, eliminating values with z-scores above the critical z-value (α=0.05). The raw EC50 values for synchronized parasites assayed in a 384-well format are listed in Supplementary Data 4. The raw EC50 values for asynchronous parasites assayed in a 96 or 1536-well format are listed in Supplementary Data 5.
EC50 values for each strain were compared with those of the corresponding parent strain to determine fold-shift changes and identify resistance. To minimize the cause variance between assays, all comparisons were conducted between strains assayed under identical conditions. A one-way ANOVA followed by a Dunnet's post-test was conducted in GraphPad Prism to identify significant changes between the parent and resistant strain.

3D7 = test: Cross-resistance EC50 assay, 3D7 parent / sensitive strain; type: cell-based; conditions: Plasmodium falciparum; for EC50: asynchronized parasites, 96-well or 1536-well format, read-out: 3D7 (PARENT) EC50 (µM) Average EC50; for pEC50: synchronized parasites
Description: Multidrug resistance alleles, including mutations in P. falciparum chloroquine resistance transporter (pfcrt) and P. falciparum multi-drug resistance transporter 1 (pfmdr1) are very common in field isolates. Therefore, we sought to assess the degree to which pre-existing resistance alleles would contribute to a loss of potency for this diverse collection of small molecule compounds. Fifteen clones derived from three main parent lines were chosen to maximize diversity in mutated pathways and genetic backgrounds, thus representing the variety of resistance seen in the field: 3D7 (ref. [23]), W2 (ref. [24]) or Dd2 (ref. [25]). The 3D7 line originates from the clone of a Netherlands clinical isolate strain[23][26] and is generally considered to be drug sensitive, though it does convey resistance to sulfadoxine. Conversely, W2 (ref. [24], [27]) and Dd2 (ref. [25]) are multi-drug-resistant lines originating from the Indochina III/CDC isolate, which contain point mutations in pfcrt as well as amplifications in pfmdr1 and GTP cyclohydrolase.
To evaluate potential overlapping activity against known antimalarial drug targets, we performed dose-response studies with each compound against our assembled set of drug-resistant lines and their corresponding parents, in an asexual blood stage proliferation assay (Table 1). Comparisons were made to the drug-sensitive strain 3D7 when a parent was unavailable (TM90C2A, W2 and Dd2). As laboratories conducted EC50 assays with different strains and protocols, all comparisons were made between assays from the same laboratory and under the same assay conditions. Compounds displaying >5-fold EC50 shifts relative to the parent or sensitive strain were flagged as having potentially non-novel targets. Average fold shifts per strain ranged from 0.82 to 2.34, with a median of 1.23 indicating there was not common resistance to any one resistant clone. No resistance patterns were observed when classifying the compounds based on chemical structure, but this was not surprising given the diversity of compounds chosen. On the other hand, given that these confirmed compounds were derived from larger unconfirmed hit lists to which some filtration criteria may have been applied (for example, elimination of obvious dihydrofolate reductase inhibitors[32]), some[10][11][12][13] pre-existing bias may exist in the set.
as §1
Alternatively, a SYBR Green-based proliferation approach was used for the 72-h assay, as previously described. […]

[2] = SYBR green 72 hour assay, 3D7 parent
[3] = SYBR green 72 hour assay, 384-well format, 3D7 parent, read-out: 3D7 (PARENT) Average EC50
[4] = SYBR green 72 hour assay, 384-well format, strain 3D7 (parent), read-out: 3D7 (PARENT) Average EC50
[5] = hypoxanthine 48-hour assay, 96-well format, strain 3D7 (parent), read-out: 3D7 (PARENT) Average EC50
[6] = hypoxanthine 48-hour assay, 96-well format, strain 3D7-C9-WT (parent of PfATP4 Mut3), read-out: 3D7-C9-WT (PARENT) Average EC50

Compound | pEC50 (P. falciparum strain 3D7) | pEC50 ([1]; DD2, CYTb:G131S strain) | EC50 (3D7; [2]) [µM] | pEC50 (3D7; [3]) | pEC50 ([1]; strain CYTb:G131S (Dd2 parent)) | pEC50 (3D7; [4]) | pEC50 (3D7; [5]) | pEC50 (3D7; [6]) | fold change in EC50, CYTb-G131S vs parent ([1]; resistance, parent Dd2) [fold]
COc1ccc(NC(=O)N2CCCCN3[C@H](CN)[C@H](c4ccc(C#Cc5ccccc5)cc4)[C@@H]3C2)cc1 [BRD1095] | 7.40 | 7.62 | 0.00215 | 7.66 |  |  |  |  | 
CCN(CC)CCn1c(=N)n(CC(O)c2ccc(Cl)c(Cl)c2)c2ccccc21.Cl (stereo not drawn) [MMV000248] | 6.51 |  | 0.138 |  | 6.44 | 6.63 | 6.51 | 6.40 | 
CCOc1cc2c(cc1OCC)C(c1cc(Cl)ccc1O)NCC2 (stereo not drawn) [MMV000478] | 5.97 |  | 0.613 |  | 5.86 | 5.73 | 5.97 | 5.89 | 
CCCOCc1cc(CN2CCN(c3cccc(Cl)c3)CC2)c(O)c2ncccc12 [MMV000787] | 6.03 |  | 0.645 |  | 6.20 | 6.20 | 5.84 | 6.03 | 
CN1CCN(c2ccc(Nc3c4ccccc4nc4ccccc34)cc2)CC1 [MMV006172] | 7.02 |  | 0.126 |  | 6.77 | 7.34 | 7.05 | 7.01 | 
CCCN(CCC)CC(O)COc1ccccc1C(=O)Nc1ccccc1 (stereo not drawn) [MMV006455] | 6.28 |  | 0.148 |  | 6.50 | 5.62 | 6.28 |  | 
COc1cc2cc(C(=O)Nc3ccccc3)c(N)nc2cc1OC [MMV006767] | 6.02 |  | 1.51 |  | 5.74 | 6.12 | 6.02 | 6.13 | 
Cc1cc(Nc2ccc(OCc3ccccc3)cc2)nc2cc(O)ccc12 [MMV007181] | 6.46 |  | 0.086 |  | 6.61 | 6.82 | 6.46 | 6.74 | 
Brc1ccc(Nc2nc3ccccc3nc2Nc2ccc(Br)cc2)cc1 [MMV007224] | 6.65 |  | 0.709 |  | 6.55 | 6.44 | 6.55 | 6.40 | 
Cc1ccc(Cn2c(N3CCC(C(=O)NCc4cccs4)CC3)nc3ccccc32)cc1 [MMV007564] | 6.24 |  | 0.867 |  | 5.89 | 6.17 | 6.24 | 6.32 | 
Cc1c(C)n(Cc2ccc(F)cc2)c2ccc(C(=O)NCc3ccco3)cc12 [MMV008149] | 6.11 |  | 1.06 |  | < 5.30 | 6.45 | 6.11 | 5.56 | > 38
OC(CNC1CCCCC1)Cn1c2ccccc2c2ccccc21 (stereo not drawn) [MMV009063] | 6.10 |  | 0.281 |  | 6.39 | 6.33 | 6.11 |  | 
CCN(CC)S(=O)(=O)c1ccc(-c2csc(Nc3ccc(C)c(C)c3)n2)cc1 [MMV009108] | 6.03 |  | 0.851 |  | 6.31 | 6.12 | 6.03 | 5.95 | 
COC(=O)c1ccc(C2C3=C(O)CC(c4ccc(F)cc4)CC3=Nc3ccccc3N2C(=O)c2ccccc2)cc1 (stereo not drawn) [MMV011438] | 6.37 |  | 0.187 |  | 6.47 | 6.64 | 6.37 | 6.29 | 
Nc1ccc(-c2nc3cc(Oc4ccc(Oc5ccc6[nH]c(-c7ccc(N)cc7)nc6c5)cc4)ccc3[nH]2)cc1 [MMV011895] | 6.80 |  | 0.24 |  | 6.48 | 6.77 | 6.80 |  | 
CN(C)CCCN(C)C(=O)C1Cc2cc(-c3ccccc3)ccc2N1S(=O)(=O)c1ccccc1 (stereo not drawn) [MMV028895] |  |  | 0.625 |  | 6.41 | 7.31 | 7.09 | 7.28 | 
COc1ccc2c3c([nH]c2c1)[C@H](CO)N(C(C)=O)CC31CCN(C(=O)Nc2ccccc2F)CC1 [MMV673482] |  | 6.74 | 0.039 | 6.90 |  |  | 6.63 | 6.63 | 
